Experimental data as given in patent US20030040540A1, “Bromonitrothienyldioxanes” (priority 2001, published 2003).
≈ marks a conversion by molar mass, not a printed value.

Key:
Aspergillus niger = test: MIC against fungi on malt extract agar (Use Example B); format: cell-based; conditions: 2 weeks at 28° C., 60 to 70% relative atmospheric humidity, no colonization whatsoever; for MIC: Aspergillus niger, 336 h, read-out: Minimum inhibitory concentrations Aspergillus niger
Protocol: (§1) The MIC was determined after 2 weeks of storage at 28° C. and 60 to 70% relative atmospheric humidity.

Chaetomium globusum = test: as above; format: cell-based; conditions: 2 weeks at 28° C., 60 to 70% relative atmospheric humidity, no colonization whatsoever; for MIC: Chaetomium, 336 h, read-out: Minimum inhibitory concentrations Chaetomium globusum
Protocol: as §1

Penicillium brevicaule = test: as above; format: cell-based; conditions: 2 weeks at 28° C., 60 to 70% relative atmospheric humidity, no colonization whatsoever; for MIC: Penicillium, 336 h, read-out: Minimum inhibitory concentrations Penicillium brevicaule
Protocol: as §1

Bacillus subtilis = test: MIC against bacteria on Landy agar (Use Example A); format: cell-based; conditions: 3 days at 28° C., 60 to 70% relative atmospheric humidity, no colonization whatsoever; for MIC: Bacillus subtilis, 72 h, read-out: Minimum inhibitory concentrations Bacillus subtilis
Protocol: (§2) The MIC was determined after 3 days of storage at 28° C. and 60 to 70% relative atmospheric humidity.

Pseudomonas aeroginosa = test: MIC against bacteria on Landy agar (Use Example A); format: cell-based; conditions: 3 days at 28° C., 60 to 70% relative atmospheric humidity, no colonization whatsoever; for MIC: Pseudomonas, 72 h, read-out: Minimum inhibitory concentrations Pseudomonas aeroginosa
Protocol: as §2

Row | SMILES | Minimum inhibitory concentrations Aspergillus niger (Aspergillus niger) | Minimum inhibitory concentrations Chaetomium globusum (Chaetomium globusum) | Minimum inhibitory concentrations Penicillium brevicaule (Penicillium brevicaule) | Minimum inhibitory concentrations Bacillus subtilis (Bacillus subtilis) | Minimum inhibitory concentrations Pseudomonas aeroginosa (Pseudomonas aeroginosa) | MIC (Pseudomonas aeroginosa) | MIC (Aspergillus niger) | MIC (Chaetomium globusum) | MIC (Bacillus subtilis) | MIC (Penicillium brevicaule) | melting point
1 | O=[N+]([O-])C1(Br)COC(c2ccc(Br)s2)OC1 (stereo not shown) [Example 3] | 200 ppm | 100 ppm | <40 ppm | – | – | – | – | – | – | – | –
2 | O=[N+]([O-])c1sc(C2OCC(Br)([N+](=O)[O-])CO2)cc1Br (stereo not shown) [Example 8] | >400 ppm | 400 ppm | 200 ppm | – | – | – | – | – | – | – | –
3 | O=[N+]([O-])c1ccc(C2OCC(Br)([N+](=O)[O-])CO2)s1 (stereo not shown) [Example 7] | 200 ppm | 100 ppm | <40 ppm | <40 ppm | 200 ppm | – | – | – | – | – | –
4 | Cc1ccsc1C1OCC(Br)([N+](=O)[O-])CO1 (stereo not shown) [Example 5] | 200 ppm | <40 ppm | <40 ppm | – | – | – | – | – | – | – | –
5 | Cc1ccc(C2OCC(Br)([N+](=O)[O-])CO2)s1 (stereo not shown) [Example 4] | 200 ppm | 100 ppm | <40 ppm | – | – | – | – | – | – | – | –
6 | O=[N+]([O-])C1(Br)COCOC1 [5-bromo-5-nitro-1,3-dioxane, reference compound] | – | – | – | – | – | 750 µg/mL (≈ 3540 µM) | 1000 µg/mL (≈ 4720 µM) | 500 µg/mL (≈ 2360 µM) | – | – | –
7 | O=[N+]([O-])C1(Br)COC(c2cccs2)OC1 (stereo not shown) [Example 1, 5-bromo-5-nitro-2-(2-thienyl)-1,3-dioxane] | – | – | – | – | – | 100 µg/mL (≈ 340 µM) | 200 µg/mL (≈ 680 µM) | 100 µg/mL (≈ 340 µM) | < 40 µg/mL | < 40 µg/mL | –
8 | O=[N+]([O-])C1(Br)COC(c2ccc(Cl)s2)OC1 (stereo not shown) [Example 2, 5-bromo-2-(5-chloro-2-thienyl)-5-nitro-1,3-dioxane] | – | – | – | – | – | 100 µg/mL (≈ 304 µM) | 100 µg/mL (≈ 304 µM) | < 40 µg/mL | < 40 µg/mL | < 40 µg/mL | 55 to 57 °C
